In patent US10308639B2, “Phosphatidylinositol 3-kinase inhibitors” (Gilead Sciences, Inc., priority 2014, dated 2019):
Like-named read-outs stand apart in the source and are kept apart here.

Assays:
Type in all cases: biochemical
PI3Kδ = molecular target: T1, PI3Kδ (Homo sapiens, UniProt O00329); test: TR-FRET enzymatic activity assay, PI3Kδ
T1 construct: made in house

PI3Kγ = molecular target: T2, PI3Kγ (Homo sapiens, UniProt P48736); test: TR-FRET enzymatic activity assay, PI3Kγ; conditions: read-out: PI3Kγ IC50
T2 construct: made in house
T2 sequence (P48736 whole entry): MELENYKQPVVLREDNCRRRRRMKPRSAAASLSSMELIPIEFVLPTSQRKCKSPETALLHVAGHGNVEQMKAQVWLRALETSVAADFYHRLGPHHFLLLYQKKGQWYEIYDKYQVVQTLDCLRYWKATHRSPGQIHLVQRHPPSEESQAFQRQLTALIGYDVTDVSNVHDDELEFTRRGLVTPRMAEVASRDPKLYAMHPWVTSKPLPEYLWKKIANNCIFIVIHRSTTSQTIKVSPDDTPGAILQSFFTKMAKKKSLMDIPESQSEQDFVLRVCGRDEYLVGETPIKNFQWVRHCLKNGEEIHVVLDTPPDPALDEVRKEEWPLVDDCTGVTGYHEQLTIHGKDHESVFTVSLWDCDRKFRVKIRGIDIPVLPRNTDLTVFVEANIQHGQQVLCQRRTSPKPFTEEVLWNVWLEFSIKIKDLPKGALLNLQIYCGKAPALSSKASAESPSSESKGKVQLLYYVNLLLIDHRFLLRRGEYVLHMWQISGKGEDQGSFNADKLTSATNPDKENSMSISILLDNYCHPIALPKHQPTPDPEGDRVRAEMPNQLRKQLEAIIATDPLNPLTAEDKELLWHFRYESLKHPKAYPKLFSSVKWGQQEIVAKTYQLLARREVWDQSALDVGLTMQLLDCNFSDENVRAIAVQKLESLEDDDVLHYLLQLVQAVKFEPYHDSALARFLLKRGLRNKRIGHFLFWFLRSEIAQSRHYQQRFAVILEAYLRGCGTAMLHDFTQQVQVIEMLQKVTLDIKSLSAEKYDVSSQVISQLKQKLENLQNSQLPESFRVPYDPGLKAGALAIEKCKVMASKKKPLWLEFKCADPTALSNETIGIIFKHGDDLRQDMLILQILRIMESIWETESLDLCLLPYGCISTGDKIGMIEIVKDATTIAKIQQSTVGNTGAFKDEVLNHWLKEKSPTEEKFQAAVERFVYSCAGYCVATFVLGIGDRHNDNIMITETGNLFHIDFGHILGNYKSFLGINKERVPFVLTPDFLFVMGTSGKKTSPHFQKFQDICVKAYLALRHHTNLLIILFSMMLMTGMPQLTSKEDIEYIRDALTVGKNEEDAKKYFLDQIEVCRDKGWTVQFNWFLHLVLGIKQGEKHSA
Summary of the method: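 Read-out is TR-FRET. The assay scores enzymatic activity of the individual PI3K isoforms in the presence of compound.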

PI3Kβ = molecular target: T3, PI3Kβ (Homo sapiens, UniProt P42338); test: TR-FRET enzymatic activity assay, PI3Kβ; conditions: Table 2; TR-FRET, 2x Km ATP, 30 minutes at 25° C.
T3 construct: made in house
T3 sequence (P42338 whole entry): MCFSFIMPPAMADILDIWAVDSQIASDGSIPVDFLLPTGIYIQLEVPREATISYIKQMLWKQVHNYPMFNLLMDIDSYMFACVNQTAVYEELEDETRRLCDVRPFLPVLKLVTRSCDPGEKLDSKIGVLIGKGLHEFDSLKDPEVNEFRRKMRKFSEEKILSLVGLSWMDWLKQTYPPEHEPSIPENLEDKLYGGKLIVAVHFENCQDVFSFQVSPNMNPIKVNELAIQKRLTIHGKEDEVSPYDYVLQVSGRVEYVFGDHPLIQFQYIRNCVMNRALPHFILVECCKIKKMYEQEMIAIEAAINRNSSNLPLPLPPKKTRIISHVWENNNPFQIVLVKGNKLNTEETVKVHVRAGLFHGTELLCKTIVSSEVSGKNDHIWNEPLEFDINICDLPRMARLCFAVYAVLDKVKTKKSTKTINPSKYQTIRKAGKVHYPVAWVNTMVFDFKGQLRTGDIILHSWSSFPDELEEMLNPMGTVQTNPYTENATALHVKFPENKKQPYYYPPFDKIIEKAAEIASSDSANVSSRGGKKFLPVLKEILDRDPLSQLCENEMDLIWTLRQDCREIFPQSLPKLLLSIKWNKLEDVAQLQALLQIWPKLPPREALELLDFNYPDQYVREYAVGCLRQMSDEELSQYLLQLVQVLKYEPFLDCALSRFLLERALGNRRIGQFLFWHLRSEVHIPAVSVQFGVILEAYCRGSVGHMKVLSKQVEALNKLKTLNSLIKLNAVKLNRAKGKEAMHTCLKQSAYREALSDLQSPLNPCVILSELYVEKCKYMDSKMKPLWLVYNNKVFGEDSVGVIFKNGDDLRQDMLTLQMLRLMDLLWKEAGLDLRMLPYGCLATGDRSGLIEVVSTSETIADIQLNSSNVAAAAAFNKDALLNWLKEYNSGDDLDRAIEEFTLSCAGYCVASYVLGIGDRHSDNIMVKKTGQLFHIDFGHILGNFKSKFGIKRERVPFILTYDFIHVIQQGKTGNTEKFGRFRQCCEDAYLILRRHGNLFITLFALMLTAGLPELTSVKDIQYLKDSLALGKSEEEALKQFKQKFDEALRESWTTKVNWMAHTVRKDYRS
T3 sequence (P27986 whole entry partner): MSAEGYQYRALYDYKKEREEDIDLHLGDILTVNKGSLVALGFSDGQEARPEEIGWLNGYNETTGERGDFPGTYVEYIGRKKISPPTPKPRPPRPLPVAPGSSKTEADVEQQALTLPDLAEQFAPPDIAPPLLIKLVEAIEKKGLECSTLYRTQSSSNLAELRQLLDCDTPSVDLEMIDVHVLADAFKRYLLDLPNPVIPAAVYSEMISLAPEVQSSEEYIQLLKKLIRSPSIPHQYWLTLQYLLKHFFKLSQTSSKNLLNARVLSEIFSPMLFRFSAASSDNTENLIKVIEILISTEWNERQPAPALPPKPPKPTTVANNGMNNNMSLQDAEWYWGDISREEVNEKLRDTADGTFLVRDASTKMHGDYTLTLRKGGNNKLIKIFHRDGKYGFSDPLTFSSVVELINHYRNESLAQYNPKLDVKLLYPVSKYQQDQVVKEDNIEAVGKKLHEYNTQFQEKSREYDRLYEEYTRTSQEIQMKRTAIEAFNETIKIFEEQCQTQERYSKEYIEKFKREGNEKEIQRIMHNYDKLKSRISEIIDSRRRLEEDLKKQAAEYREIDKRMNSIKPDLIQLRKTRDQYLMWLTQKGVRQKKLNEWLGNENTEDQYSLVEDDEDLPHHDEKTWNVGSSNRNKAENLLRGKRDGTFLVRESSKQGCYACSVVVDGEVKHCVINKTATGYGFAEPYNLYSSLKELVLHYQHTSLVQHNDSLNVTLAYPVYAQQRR

[1] = Table 2, TR-FRET, 2x Km ATP, 30 minutes at 25° C.

T1 sequence (O00329 whole entry): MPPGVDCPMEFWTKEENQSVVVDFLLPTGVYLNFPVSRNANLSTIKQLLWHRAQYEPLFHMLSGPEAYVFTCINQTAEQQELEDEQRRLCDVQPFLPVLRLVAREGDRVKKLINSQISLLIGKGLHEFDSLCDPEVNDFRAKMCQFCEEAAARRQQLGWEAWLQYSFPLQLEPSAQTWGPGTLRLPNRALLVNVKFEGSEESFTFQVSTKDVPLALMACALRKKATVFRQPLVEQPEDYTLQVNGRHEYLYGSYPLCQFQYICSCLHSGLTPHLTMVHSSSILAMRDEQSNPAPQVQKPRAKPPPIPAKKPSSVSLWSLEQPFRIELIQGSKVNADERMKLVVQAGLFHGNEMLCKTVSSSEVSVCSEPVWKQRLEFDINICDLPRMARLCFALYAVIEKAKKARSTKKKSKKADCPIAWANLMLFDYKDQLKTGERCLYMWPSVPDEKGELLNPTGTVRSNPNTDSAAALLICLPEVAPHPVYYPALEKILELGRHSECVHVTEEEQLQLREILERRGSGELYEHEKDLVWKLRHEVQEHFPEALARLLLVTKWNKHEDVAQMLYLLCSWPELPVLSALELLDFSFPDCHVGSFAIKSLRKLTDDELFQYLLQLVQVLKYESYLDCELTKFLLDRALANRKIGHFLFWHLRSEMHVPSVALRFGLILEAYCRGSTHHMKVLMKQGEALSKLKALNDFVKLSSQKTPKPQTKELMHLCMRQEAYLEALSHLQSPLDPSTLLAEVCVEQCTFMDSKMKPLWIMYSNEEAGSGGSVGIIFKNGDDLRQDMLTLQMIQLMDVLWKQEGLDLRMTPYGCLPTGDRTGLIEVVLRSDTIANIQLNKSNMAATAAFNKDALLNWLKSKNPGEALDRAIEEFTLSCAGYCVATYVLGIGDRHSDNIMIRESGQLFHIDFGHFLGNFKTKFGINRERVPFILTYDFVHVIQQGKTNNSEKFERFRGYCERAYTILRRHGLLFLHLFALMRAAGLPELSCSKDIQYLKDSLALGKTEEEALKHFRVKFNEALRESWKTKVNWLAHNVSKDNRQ
T1 sequence (P27986 whole entry partner): as the sequence (P27986 whole entry partner) above

SMILES	IC50 (PI3Kδ; [1]) [nM]	IC50 (PI3Kγ) [nM]	IC50 (PI3Kβ) [nM]	IC50 (PI3Kγ; [1]) [nM]	IC50 (PI3Kδ) [nM]
CC[C@H](Nc1ncnc2sccc12)c1nc2c(Cl)ccc(Cl)c2c(=O)n1-c1cc[nH]n1 [Compound 54, (S)-5,8-dichloro-3-(1H-pyrazol-3-yl)-2-(1-(thieno[2,3-d]pyrimidin-4-ylamino)propyl)quinazolin-4(3H)-one]	18	> 10000	240		
CC[C@H](Nc1nc(F)nc2[nH]cnc12)c1nc2c(Cl)ccc(Cl)c2c(=O)n1-c1cn[nH]c1 [Compound 55, (S)-5,8-dichloro-2-(1-((2-fluoro-9H-purin-6-yl)amino)propyl)-3-(1H-pyrazol-4-yl)quinazolin-4(3H)-one]	65	> 10000	570		
CC[C@H](Nc1ncnc2sccc12)c1nc2c(Cl)ccc(Cl)c2c(=O)n1-c1cn[nH]c1 [Compound 56, (S)-5,8-dichloro-3-(1H-pyrazol-4-yl)-2-(1-(thieno[2,3-d]pyrimidin-4-ylamino)propyl)quinazolin-4(3H)-one]	88	> 10000	1300		
CC[C@H](Nc1ncnc2[nH]cnc12)c1nc2c(Cl)ccc(Cl)c2c(=O)n1-c1cn[nH]c1 [Compound 57, (S)-2-(1-((9H-purin-6-yl)amino)propyl)-5,8-dichloro-3-(1H-pyrazol-4-yl)quinazolin-4(3H)-one]	29	> 10000	380		
CC[C@H](Nc1ncnc2[nH]cc(F)c12)c1nc2c(Cl)ccc(Cl)c2c(=O)n1-c1cn[nH]c1 [Compound 58, (S)-5,8-dichloro-2-(1-((5-fluoro-7H-pyrrolo[2,3-d]pyrimidin-4-yl)amino)propyl)-3-(1H-pyrazol-4-yl)quinazolin-4(3H)-one]	14		320	5900	
CC[C@H](Nc1ncnc2[nH]cc(F)c12)c1nc2c(Cl)ccc(Cl)c2c(=O)n1-c1cc[nH]n1 [Compound 59, (S)-5,8-dichloro-2-(1-((5-fluoro-7H-pyrrolo[2,3-d]pyrimidin-4-yl)amino)propyl)-3-(1H-pyrazol-3-yl)quinazolin-4(3H)-one]		> 10000	97		2
C[C@H](Nc1ncnc2sccc12)c1nc2cccc(Cl)c2c(=O)n1-c1cc[nH]n1 [Compound 60, (S)-5-chloro-3-(1H-pyrazol-3-yl)-2-(1-(thieno[2,3-d]pyrimidin-4-ylamino)ethyl)quinazolin-4(3H)-one]	2	> 10000	43		
C[C@H](Nc1ncnc2ccoc12)c1nc2cccc(Cl)c2c(=O)n1-c1cc[nH]n1 [Compound 61, (S)-5-chloro-2-(1-(furo[3,2-d]pyrimidin-4-ylamino)ethyl)-3-(1H-pyrazol-3-yl)quinazolin-4(3H)-one]	3		20	8100	
CC[C@H](Nc1ncnc2ccoc12)c1nc2c(Cl)ccc(Cl)c2c(=O)n1-c1cc[nH]n1 [Compound 62, (S)-5,8-dichloro-2-(1-(furo[3,2-d]pyrimidin-4-ylamino)propyl)-3-(1H-pyrazol-3-yl)quinazolin-4(3H)-one]	9	> 10000	120		
CC[C@H](Nc1nc(N)nc(N)c1Cl)c1nc2cccc(Cl)c2c(=O)n1-c1cc[nH]n1 [Compound 65, (S)-5-chloro-2-(1-((2,6-diamino-5-chloropyrimidin-4-yl)amino)propyl)-3-(1H-pyrazol-3-yl)quinazolin-4(3H)-one]	9		18	4200	
CC[C@H](Nc1nc(N)nc(N)c1Cl)c1nc2c(Cl)ccc(Cl)c2c(=O)n1-c1cc[nH]n1 [Compound 66, (S)-5,8-dichloro-2-(1-((2,6-diamino-5-chloropyrimidin-4-yl)amino)propyl)-3-(1H-pyrazol-3-yl)quinazolin-4(3H)-one]	36	> 10000	150		
C[C@H](Nc1nc(N)nc(N)c1Cl)c1nc2c(F)ccc(Cl)c2c(=O)n1-c1cc[nH]n1 [Compound 67, (S)-5-chloro-2-(1-((2,6-diamino-5-chloropyrimidin-4-yl)amino)ethyl)-8-fluoro-3-(1H-pyrazol-3-yl)quinazolin-4(3H)-one]	3		3	2800	
CC[C@H](Nc1nc(N)nc(N)c1Cl)c1nc2c(F)ccc(Cl)c2c(=O)n1-c1cc[nH]n1 [Compound 68, (S)-5-chloro-2-(1-((2,6-diamino-5-chloropyrimidin-4-yl)amino)propyl)-8-fluoro-3-(1H-pyrazol-3-yl)quinazolin-4(3H)-one]	20	> 10000	44		
C[C@H](Nc1nc(N)nc(N)c1Cl)c1nc2c(Cl)ccc(Cl)c2c(=O)n1-c1cc[nH]n1 [Compound 69, (S)-5,8-dichloro-2-(1-((2,6-diamino-5-chloropyrimidin-4-yl)amino)ethyl)-3-(1H-pyrazol-3-yl)quinazolin-4(3H)-one]	6	> 10000	13		
Nc1nc(N)c(Cl)c(N[C@H](c2nc3c(F)ccc(Cl)c3c(=O)n2-c2cc[nH]n2)C2CC2)n1 [Compound 70, (S)-5-chloro-2-(cyclopropyl((2,6-diamino-5-chloropyrimidin-4-yl)amino)methyl)-8-fluoro-3-(1H-pyrazol-3-yl)quinazolin-4(3H)-one]	14	> 10000	30		
Nc1nc(N)c(Cl)c(N[C@H](c2nc3c(Cl)ccc(Cl)c3c(=O)n2-c2cc[nH]n2)C2CC2)n1 [Compound 71, (S)-5,8-dichloro-2-(cyclopropyl((2,6-diamino-5-chloropyrimidin-4-yl)amino)methyl)-3-(1H-pyrazol-3-yl)quinazolin-4(3H)-one]	13	> 10000	38		
C[C@H](Nc1ncnc(N)c1C#Cc1ccc(F)cn1)c1nc2cccc(Cl)c2c(=O)n1-c1cc[nH]n1 [Compound 72, (S)-2-(1-((6-amino-5-((5-fluoropyridin-2-yl)ethynyl)pyrimidin-4-yl)amino)ethyl)-5-chloro-3-(1H-pyrazol-3-yl)quinazolin-4(3H)-one]	0.5		4	4000	
CC[C@H](Nc1ncnc2scnc12)c1nc2cccc(C#N)c2c(=O)n1-c1cc[nH]n1 [Compound 73, (S)-4-oxo-3-(1H-pyrazol-3-yl)-2-(1-(thiazolo[5,4-d]pyrimidin-7-ylamino)propyl)-3,4-dihydroquinazoline-5-carbonitrile]	18	> 10000	95		
CC[C@H](Nc1ncnc2scnc12)c1nc2c(C#N)cccc2c(=O)n1-c1cc[nH]n1 [Compound 74, (S)-4-oxo-3-(1H-pyrazol-3-yl)-2-(1-(thiazolo[5,4-d]pyrimidin-7-ylamino)propyl)-3,4-dihydroquinazoline-8-carbonitrile]	5	> 10000	20		
CC[C@H](Nc1nc(N)nc(N)c1C#N)c1nc2c(C#N)cccc2c(=O)n1-c1cc[nH]n1 [Compound 75, (S)-2-(1-((2,6-diamino-5-cyanopyrimidin-4-yl)amino)propyl)-4-oxo-3-(1H-pyrazol-3-yl)-3,4-dihydroquinazoline-8-carbonitrile]	3		1	5100	
CC[C@H](Nc1nc(N)nc(C)c1C#N)c1nc2c(C#N)cccc2c(=O)n1-c1cc[nH]n1 [Compound 76, (S)-2-(1-((2-amino-5-cyano-6-methylpyrimidin-4-yl)amino)propyl)-4-oxo-3-(1H-pyrazol-3-yl)-3,4-dihydroquinazoline-8-carbonitrile]	2		0.6	6300	
CC[C@H](Nc1ncnc2scnc12)c1nc2cccc(Cl)c2c(=O)n1-c1n[nH]cc1Br [Compound 77, (S)-3-(4-bromo-1H-pyrazol-3-yl)-5-chloro-2-(1-(thiazolo[5,4-d]pyrimidin-7-ylamino)propyl)quinazolin-4(3H)-one]	5		140	1700	
CC[C@H](Nc1nc(N)nc(N)c1Cl)c1nc2c(C#N)cccc2c(=O)n1-c1cc[nH]n1 [Compound 78, (S)-2-(1-((2,6-diamino-5-chloropyrimidin-4-yl)amino)propyl)-4-oxo-3-(1H-pyrazol-3-yl)-3,4-dihydroquinazoline-8-carbonitrile]	53	> 10000	190		
CC[C@H](Nc1nc(N)nc2[nH]nc(Br)c12)c1nc2cccc(C#N)c2c(=O)n1-c1cn[nH]c1 [Compound 79, (S)-2-(1-((6-amino-3-bromo-1H-pyrazolo[3,4-d]pyrimidin-4-yl)amino)propyl)-4-oxo-3-(1H-pyrazol-4-yl)-3,4-dihydroquinazoline-5-carbonitrile]	340		650	9000	
CC[C@H](Nc1nc(N)nc2[nH]nc(Br)c12)c1nc2c(C#N)cccc2c(=O)n1-c1cc[nH]n1 [Compound 80, (S)-2-(1-((6-amino-3-bromo-1H-pyrazolo[3,4-d]pyrimidin-4-yl)amino)propyl)-4-oxo-3-(1H-pyrazol-3-yl)-3,4-dihydroquinazoline-8-carbonitrile]	35	> 10000	22		
CC[C@H](Nc1nc(N)nc2[nH]nc(Br)c12)c1nc2c(Cl)ccc(Cl)c2c(=O)n1-c1cc[nH]n1 [Compound 81, (S)-2-(1-((6-amino-3-bromo-1H-pyrazolo[3,4-d]pyrimidin-4-yl)amino)propyl)-5,8-dichloro-3-(1H-pyrazol-3-yl)quinazolin-4(3H)-one]	16	> 10000	12		
CC[C@H](Nc1nc(Cl)nc2[nH]ncc12)c1nc2c(Cl)ccc(Cl)c2c(=O)n1-c1cc[nH]n1 [Compound 82, (S)-5,8-dichloro-2-(1-((6-chloro-1H-pyrazolo[3,4-d]pyrimidin-4-yl)amino)propyl)-3-(1H-pyrazol-3-yl)quinazolin-4(3H)-one]	4100	> 10000	4700		
